From ChEMBL document CHEMBL1201862, “PubChem BioAssay data set” (2004)
Calls of active or inactive are those of the source.

Key:
[1] = biological target: T1, Lysine-specific demethylase 4C (Homo sapiens, UniProt Q9H3R0); test: GASC-1 (JMJD2C) histone demethylase inhibitors, dose response, biochemical, DELFIA europium, cherry-picked samples (AID 488835); assay type: functional
T1 sequence (Q9H3R0 whole entry): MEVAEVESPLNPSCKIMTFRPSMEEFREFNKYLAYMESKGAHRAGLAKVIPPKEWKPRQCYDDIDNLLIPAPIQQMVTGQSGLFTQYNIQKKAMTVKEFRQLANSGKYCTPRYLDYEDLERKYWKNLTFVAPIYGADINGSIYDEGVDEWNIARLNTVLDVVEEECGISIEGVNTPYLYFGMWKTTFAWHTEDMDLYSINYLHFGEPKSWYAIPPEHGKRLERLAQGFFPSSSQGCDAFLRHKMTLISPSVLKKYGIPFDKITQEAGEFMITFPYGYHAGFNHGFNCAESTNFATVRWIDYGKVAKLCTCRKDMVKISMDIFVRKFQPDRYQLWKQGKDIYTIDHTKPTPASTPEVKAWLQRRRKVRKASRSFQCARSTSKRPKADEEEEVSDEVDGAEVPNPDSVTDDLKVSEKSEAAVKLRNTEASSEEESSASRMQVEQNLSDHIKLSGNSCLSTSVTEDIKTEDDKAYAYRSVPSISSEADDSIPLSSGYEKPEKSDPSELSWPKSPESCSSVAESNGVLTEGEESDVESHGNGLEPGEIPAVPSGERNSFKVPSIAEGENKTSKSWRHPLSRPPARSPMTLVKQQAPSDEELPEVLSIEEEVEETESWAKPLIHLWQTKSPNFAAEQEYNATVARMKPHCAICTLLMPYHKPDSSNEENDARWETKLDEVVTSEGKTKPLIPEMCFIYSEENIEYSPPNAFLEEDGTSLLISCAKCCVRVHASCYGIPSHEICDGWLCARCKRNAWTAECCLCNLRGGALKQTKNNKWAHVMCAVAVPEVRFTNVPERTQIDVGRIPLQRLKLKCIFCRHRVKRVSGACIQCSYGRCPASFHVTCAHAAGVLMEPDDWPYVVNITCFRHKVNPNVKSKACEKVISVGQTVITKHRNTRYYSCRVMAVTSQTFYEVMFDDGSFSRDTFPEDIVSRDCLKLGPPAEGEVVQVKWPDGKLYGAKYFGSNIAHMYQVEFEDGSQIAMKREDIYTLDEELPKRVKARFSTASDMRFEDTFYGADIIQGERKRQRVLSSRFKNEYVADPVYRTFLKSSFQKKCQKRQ

[2] = biological target: Serine/threonine-protein kinase Chk1 (Homo sapiens, UniProt O14757); assay type: functional;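 also: measured as one member of a kinome-wide kinase profiling panel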
[3] = biological target: Rho-associated protein kinase 2 (Homo sapiens, UniProt O75116); assay type: functional
[4] = biological target: T2, Hexokinase HKDC1 (Homo sapiens, UniProt Q2TB90); test: HKDC1 hexokinase inhibitors, dose response, biochemical, W721R variant (AID 504729); assay type: functional
T2 sequence (Q2TB90 whole entry): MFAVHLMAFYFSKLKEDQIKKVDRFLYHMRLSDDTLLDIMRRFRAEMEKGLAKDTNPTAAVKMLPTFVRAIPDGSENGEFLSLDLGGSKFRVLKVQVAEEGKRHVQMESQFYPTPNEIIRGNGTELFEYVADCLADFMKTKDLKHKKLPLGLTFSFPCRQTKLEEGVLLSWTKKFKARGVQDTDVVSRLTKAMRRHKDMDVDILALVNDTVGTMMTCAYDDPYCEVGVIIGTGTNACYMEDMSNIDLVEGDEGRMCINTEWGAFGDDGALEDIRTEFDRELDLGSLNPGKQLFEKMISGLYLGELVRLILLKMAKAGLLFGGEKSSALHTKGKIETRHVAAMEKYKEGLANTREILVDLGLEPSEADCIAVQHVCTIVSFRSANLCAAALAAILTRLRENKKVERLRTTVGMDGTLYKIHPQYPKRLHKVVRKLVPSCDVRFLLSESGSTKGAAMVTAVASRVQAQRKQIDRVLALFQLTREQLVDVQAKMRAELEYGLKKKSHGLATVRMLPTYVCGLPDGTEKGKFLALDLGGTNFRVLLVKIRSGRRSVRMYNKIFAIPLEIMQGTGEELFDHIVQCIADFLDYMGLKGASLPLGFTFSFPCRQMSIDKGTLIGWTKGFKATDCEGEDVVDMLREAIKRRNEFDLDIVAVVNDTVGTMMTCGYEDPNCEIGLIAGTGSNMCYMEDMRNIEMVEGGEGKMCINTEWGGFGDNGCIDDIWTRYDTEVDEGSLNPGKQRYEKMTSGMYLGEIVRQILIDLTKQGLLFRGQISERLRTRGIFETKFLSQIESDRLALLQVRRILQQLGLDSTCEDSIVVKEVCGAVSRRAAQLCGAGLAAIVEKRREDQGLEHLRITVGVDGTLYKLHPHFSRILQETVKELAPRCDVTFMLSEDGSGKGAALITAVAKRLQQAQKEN

[5] = biological target: Dual specificity tyrosine-phosphorylation-regulated kinase 1A (Rattus norvegicus, UniProt Q63470); assay type: biochemical, Homo sapiens
[6] = CEM21 lymphoblast cell cytotoxicity, dose response, cytotoxicity control for viral fusion inhibitor project, CellTiter-Glo luminescence, cherry-picked (AID 652042); assay type: functional, cell-based;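 also: potency for signal decrease meaning cytotoxicity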
[7] = off-target signal loss in HeLa-CEM21 co-culture – HeLa F-luc CTL cells, cherry-picked, counter-screen for HIV-1 Env fusion inhibitor project, dose response (AID 652040); assay type: functional, cell-based;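 also: potency for signal decrease marking cytotoxic or nonspecific inhibition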
[8] = inhibitors of clade B AD8 Env fusion, dose response, cell-based, cherry-pick (AID 652062); assay type: functional;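 also: luciferase signal from cell-cell fusion driven by HIV-1 clade B AD8 Env; potency is for inhibitors of fusion seen as a drop in luminescence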
[9] = test system: BJ; test: cytotoxicity toward BJ-TERT fibroblasts, dose response, cell-based, RAS-independent, luminescence (AID 1933); assay type: functional; conditions: Homo sapiens
[10] = test system: BJ; test: cells; assay type: functional, cell-based; conditions: Homo sapiens
[11] = M. tuberculosis H37Rv growth inhibitors, H37Rv strain (AID 1626); assay type: functional
[12] = test system: P388; test: cells; assay type: functional; conditions: Mus musculus;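 also: compound exposure lasted 48 hours before growth was measured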

Chain of Rho-associated protein kinase 2 (O75116 whole entry): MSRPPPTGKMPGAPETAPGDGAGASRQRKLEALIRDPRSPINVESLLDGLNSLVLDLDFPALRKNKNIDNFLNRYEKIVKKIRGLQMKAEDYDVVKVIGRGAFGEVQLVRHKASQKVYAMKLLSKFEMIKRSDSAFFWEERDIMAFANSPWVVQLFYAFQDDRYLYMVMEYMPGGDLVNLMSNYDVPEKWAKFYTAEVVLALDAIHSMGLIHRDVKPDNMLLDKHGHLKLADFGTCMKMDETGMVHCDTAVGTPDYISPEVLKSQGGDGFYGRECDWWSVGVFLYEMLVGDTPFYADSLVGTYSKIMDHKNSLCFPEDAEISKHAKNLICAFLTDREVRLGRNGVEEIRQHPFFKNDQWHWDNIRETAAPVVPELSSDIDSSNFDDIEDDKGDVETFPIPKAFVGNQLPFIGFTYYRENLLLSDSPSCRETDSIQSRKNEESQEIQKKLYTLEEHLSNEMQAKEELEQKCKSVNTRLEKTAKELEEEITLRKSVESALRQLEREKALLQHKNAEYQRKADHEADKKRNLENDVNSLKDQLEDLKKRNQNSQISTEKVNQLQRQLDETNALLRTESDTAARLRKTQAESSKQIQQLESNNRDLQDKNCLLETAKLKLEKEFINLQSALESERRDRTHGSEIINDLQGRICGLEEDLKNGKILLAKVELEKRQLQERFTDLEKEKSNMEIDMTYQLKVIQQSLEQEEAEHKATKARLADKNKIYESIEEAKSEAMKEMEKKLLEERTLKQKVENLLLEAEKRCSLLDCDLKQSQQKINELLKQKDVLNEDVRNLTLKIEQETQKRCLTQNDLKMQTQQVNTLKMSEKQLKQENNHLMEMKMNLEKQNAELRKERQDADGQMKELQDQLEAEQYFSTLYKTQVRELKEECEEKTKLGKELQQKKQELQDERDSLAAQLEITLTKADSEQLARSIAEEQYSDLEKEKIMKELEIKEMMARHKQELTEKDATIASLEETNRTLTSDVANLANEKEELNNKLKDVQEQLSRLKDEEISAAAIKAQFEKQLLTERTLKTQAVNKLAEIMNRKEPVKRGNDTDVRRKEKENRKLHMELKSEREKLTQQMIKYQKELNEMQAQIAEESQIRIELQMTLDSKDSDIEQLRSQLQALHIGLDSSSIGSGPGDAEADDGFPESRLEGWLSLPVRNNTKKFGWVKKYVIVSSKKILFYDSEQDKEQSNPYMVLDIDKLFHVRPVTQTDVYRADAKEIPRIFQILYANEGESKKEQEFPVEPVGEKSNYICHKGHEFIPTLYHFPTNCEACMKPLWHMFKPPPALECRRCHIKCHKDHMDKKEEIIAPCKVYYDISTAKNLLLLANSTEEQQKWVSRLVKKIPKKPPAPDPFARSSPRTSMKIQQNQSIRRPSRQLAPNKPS
Chain of Serine/threonine-protein kinase Chk1 (O14757 whole entry): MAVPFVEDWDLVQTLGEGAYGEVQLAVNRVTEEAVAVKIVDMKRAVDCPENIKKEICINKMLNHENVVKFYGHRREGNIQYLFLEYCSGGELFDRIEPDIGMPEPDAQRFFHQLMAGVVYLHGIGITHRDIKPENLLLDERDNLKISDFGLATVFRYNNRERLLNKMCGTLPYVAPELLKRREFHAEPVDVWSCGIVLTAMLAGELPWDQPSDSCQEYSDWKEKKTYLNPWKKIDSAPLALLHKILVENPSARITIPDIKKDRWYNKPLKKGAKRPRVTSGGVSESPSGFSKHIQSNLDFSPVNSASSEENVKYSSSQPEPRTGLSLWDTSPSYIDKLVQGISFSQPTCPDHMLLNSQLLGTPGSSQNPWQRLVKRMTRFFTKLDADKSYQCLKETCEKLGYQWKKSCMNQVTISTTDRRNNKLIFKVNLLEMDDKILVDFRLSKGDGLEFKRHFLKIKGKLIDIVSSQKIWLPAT

For `O=C(Cc1ccccc1)NC1(O)C(=O)c2ccccc2C1=O`, the AC50 [1] was 5.55 µM (active).

For `O=C(Nc1cccc(C(F)(F)F)n1)Nc1ccnc2cc(OC(F)F)ccc12`, the Ki [2] was > 3.16 µM (inactive).

With `CCC1CC(NS(=O)(=O)C2CC2)CC1c1ncc2cnc3[nH]ccc3n12` (configuration not stated) the Ki [3] was 0.0126 µM (active).

For `Cc1cc(C)c(S(=O)(=O)/N=C2\C=C(Nc3ccc(C(=O)O)cc3)C(=O)c3ccccc32)c(C)c1`, the IC50 [4] was 15.2 µM (active), the AC50 [5] was 1.8 µM (active) and the AC50 [6] was 9.3 µM (active). For the same compound, the AC50 [7] was 17.2 µM (active) and the AC50 [8] was 9.55 µM (active).

For `COC(=O)c1nc(-c2ccc3c(n2)C(=O)C(=N)C(OC)=C3O)c(N)c(-c2ccc(OC)c(OC)c2O)c1C`, the EC50 [9] was 5.91 µM (active), the EC50 [10] was 4.56 µM (active) and the IC50 [11] was > 100 µM (active). For the same compound, the GI50 [12] was 1.49 µM (inactive).
